Values belong to the compound of their own block, whether it stands above or below them.
Legend:
[1] = target: T1, HDB-EtCl O-dechloroethylation (CYP1A1) in human liver microsomes (Homo sapiens, UniProt P04798); experiment: Chemical inhibition assay of HDB-EtCl O-dechloroethylation in HLMs; conditions: ABT 500 μmol/L, resveratrol 100 μmol/L, others 1-10 μmol/L
T1 sequence (P04798 1-512): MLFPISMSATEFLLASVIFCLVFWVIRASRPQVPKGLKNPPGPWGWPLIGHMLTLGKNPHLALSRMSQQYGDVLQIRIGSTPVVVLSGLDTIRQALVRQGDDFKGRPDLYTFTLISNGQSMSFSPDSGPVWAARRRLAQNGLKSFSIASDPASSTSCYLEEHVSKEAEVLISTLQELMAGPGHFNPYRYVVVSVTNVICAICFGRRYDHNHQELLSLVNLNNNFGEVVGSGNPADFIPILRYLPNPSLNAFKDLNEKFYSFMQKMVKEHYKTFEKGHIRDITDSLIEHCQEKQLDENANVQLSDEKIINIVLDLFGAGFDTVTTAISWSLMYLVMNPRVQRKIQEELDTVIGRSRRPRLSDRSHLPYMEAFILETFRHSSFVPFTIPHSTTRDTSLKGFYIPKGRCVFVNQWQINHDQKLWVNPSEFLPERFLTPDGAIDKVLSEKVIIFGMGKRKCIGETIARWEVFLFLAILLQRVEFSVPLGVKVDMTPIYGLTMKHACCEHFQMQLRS

LPS-induced ALI mice = experiment: LPS-induced acute lung injury in mice; assay type: in vivo, mouse
[2] = system: DSS-induced ulcerative colitis mice; experiment: DSS-induced ulcerative colitis in mice; assay type: in vivo, mouse
[3] = system: CYP1A1 in Caco2, BEAS-2B, H292, and HepG2 cells; experiment: Functional imaging of CYP1A1 in living cells; assay type: cell-based, human; conditions: 100 μmol/L, 1 h pre-incubation
[4] = system: Caco2, BEAS-2B, H292, and HepG2 cells; experiment: Cytotoxicity assays of probe, metabolite and inhibitor; assay type: cell-based, human; conditions: all tested mammalian cells

inhibition of HDB-EtCl O-dechloroethylation in HLMs [1]: completely blocked
Structure (SMILES): Nn1nnc2ccccc21 [ABT, 1-aminobenzotriazole]

Structure (SMILES): C[C@@H]1C[C@H]2[C@@H]3CCC4=CC(=O)C=C[C@]4(C)[C@@]3(F)[C@@H](O)C[C@]2(C)[C@@]1(O)C(=O)CO [Dex, dexamethasone]
lung injury scores (LPS-induced ALI mice; LAC-7 20 and 40 mg/kg, Dex 5 mg/kg): significantly reduce
Occludin immunofluorescence intensity in lung (LPS-induced ALI mice; mouse, in vivo): enhanced
ZO-1 immunofluorescence intensity in lung (LPS-induced ALI mice; oral administration): significantly increased
total cell count in BALF (LPS-induced ALI mice; vs LPS-induced ALI mice): significantly decreased

Structure (SMILES): O=C(O)c1cc(/N=N/c2ccc(S(=O)(=O)Nc3ccccn3)cc2)ccc1O [SASP, salazosulfapyridine]
elevated IL-1β, TNF-α, IL-6, IFN-γ in intestinal tissues ([2]; ELISA, oral administration): effectively mitigated
colon histopathological abnormities (H&E) ([2]; LAC-7 20 and 40 mg/kg, SASP 200 mg/kg): largely restored
shortening of colon length by DSS ([2]; LAC-7 20 and 40 mg/kg, SASP 200 mg/kg, oral): significantly reversed
expression of tight junction proteins Occludin and ZO-1 in intestine ([2]; immunofluorescence): significantly increased

blocking of HDB-EtCl red-channel fluorescent signals in cells [3]: completely blocked
inhibition of HDB-EtCl O-dechloroethylation in HLMs [1]: completely blocked
Structure (SMILES): Oc1ccc(/C=C/c2cc(O)cc(O)c2)cc1 [resveratrol]
cytotoxicity [4]: weak cytotoxicity

From PMC11873638 (Acta Pharmaceutica Sinica. B, 2024)
